Measurements taken from patent publication US3984531A, “Technetium-99m-tin-monofluorophosphate complex” (The Radiochemical Centre Limited, priority 1973, dated 1976).

What was measured:
[1] = skeletal imaging prior to 1971; cited from earlier work
[2] = monoenergetic; cited from earlier work
[3] = compared with stannous chloride
[4] = long chain polyphosphate material; cited from earlier work
[5] = Subramanian and McAfee, Radiology 1971; cited from earlier work

Compound: [18FH] [Fluorine-18, fluorine-18]
- scan performance (in words) [1]: good agent

Compound: [85Sr] [Strontium-85, strontium-85]
- scan performance (in words) [1]: poor quality scans

Compound: [87Sr] [Strontium-87m, strontium-87m]
- scan performance (in words) [1]: high blood background

Compound: [99Tc] [technetium-99m]
- gamma emission energy [2]: 140 KeV

Compound: Stannous fluoride
- stability to hydrolysis in aqueous solution (in words) [3]: more stable to hydrolysis in aqueous solution than stannous chloride

Compound: tripolyphosphate
- stability with respect to hydrolysis (in words) [4]: instability of the long chain polyphosphate material with respect to hydrolysis
- skeletal uptake / localization (in words) [5]: good skeletal uptake of activity
